From patent US10550400B2, “Methods to monitor post-translational gene silencing activity in plant tissues/cell types relevant for pathogen entry, propagation or replication” (Paris Sciences et Lettres—Quartier Latin, priority 2014, dated 2020)

How the values were obtained:
Format in all cases: in vivo, Arabidopsis thaliana
[1] = system: artificial siRNAs
From the text: These level analyses will determine (i) at which steps of the RNA silencing pathway a given molecule, microorganism or extract is acting (small RNA biogenesis, accumulation and/or activity) (ii) the intensity by which a given molecule, microorganism or extract is modulating RNA silencing. Regarding the quantification of artificial or endogenous small RNA accumulation, Low Molecular Weight (LMW) Northern blot analyses or Real Time quantitative PCR (RT-qPCR) analyses can be used. Concerning the quantification of artificial or endogenous small RNA targets, High Molecular Weight (HMW) Northern analyses or RT-PCR analyses can be used. […]

[2] = system: biosensor specific to xylem parenchyma cells; assay: Visual chlorosis of sprayed xylem-specific biosensors (AAP6-p::SUL-LUS, IRX3-p::SUL-LUS); settings: 2 mM SA with 0.02% Silwet L-77, 5 days, AAP6-p::SUL-LUS and IRX3-p::SUL-LUS; listed as SA
Experimental: Picture of 5-week-old SUC-SUL, HYD-p::SUL-LUS, AAP6-p::SUL-LUS, IRX3-p::SUL-LUS or GC1-p::SUL-LUS plants treated either Mock (0.02% Silwet L-77 only) or 2 mM of SA (with 0.02% Silwet L-77) for 5 days.
To test whether the increase level of PTGS detected in SA-treated phloem-specific IR-PTGS sensor is detectable to other tissues, the inventors have sprayed different tissue-specific biosensors with the same concentration of SA. The biosensors specific to hydathodes, xylem parenchyma cells, guard cells and companion cells of phloem were sprayed with SA and the level of chlorosis was assessed 5 day later (FIG. 6). […] These observations therefore highlight the importance of using different tissue-specific biosensors to screen natural or synthetic compounds, microorganisms, macro- or micro-organism extracts that can have a PTGS inducer activity specifically in a given tissue that is relevant to manage a specific disease. On the contrary, we are anticipating that the whole series of reporters will be also exploited to identify molecules, microorganisms or extracts that can induce PTGS/immune responses in all the above tissues. Such compounds, microorganisms or extracts will have the potential to confer broad-spectrum disease resistance and to restrict growth of pathogens with different modes of entry, propagation and replication. […]

[3] = system: SUL protein; assay: Western blot of SUL protein levels in SA-treated SUC-SUL leaves; settings: 2 mM SA + 0.01% Silwet L-77, 3 days, vs Mock
Experimental: C. Western blot analyses showing SUL and CIP4 protein levels in SUC-SUL leaves treated with either Mock (0.01% Silwet L-77 only) or with 2 mM of SA (+0.01% Silwet L-77) for 3 days.
(§1) For this purpose, they have sprayed a previously characterized phloem-specific IR-PTGS sensor (Dunoyer et al., 2005) with either (1) Salicylic acid (SA), a well-characterized phytohormone that plays a critical role in resistance against biotrophic pathogens, (2) 2,6-dichloroisonicotonic acid and benzo-(1,2,3)-thiadiazole-7-carbothioic acid S-methyl ester (BTH), a functional analog of SA that is regularly used by farmers to enhance disease resistance in crops, (3) Aliette, formulated fosetyl-Aluminium that can stimulate plant antimicrobial defense in cultivated plants but also protect them from fungal and oomycete infections through a potent and systemic fungicide activity, (4) Serenade, which is composed of formulated Bacillus subtilis (5) formulated Laminarine, a beta 1-3 glucan that mimics fungal cell wall and therefore promote natural antifungal defense responses in some cultivated plants; and have further monitored the effects of such treatments on the vein-centered chlorotic phenotype of this IR-PTGS reporter system. […]

[4] = system: phloem-specific IR-PTGS sensor; assay: Visual chlorotic phenotype of sprayed phloem-specific IR-PTGS sensor (SUC-SUL plants); settings: for chlorotic phenotype / PTGS activity, phloem-specific reporter: 2 mM SA with 0.02% Silwet L-77, 5 days, SUC-SUL; for vein-centered chlorotic phenotype (IR-PTGS activity): sprayed on phloem-specific IR-PTGS sensor
From the text: A. […]
In step (b), said molecule, microorganism or extract can be applied either at seedling stage or at later developmental stages such as at rosette stage. This molecule, microorganism or extract is applied either in liquid medium in (micro) well-plates, by infiltration using a needle-less syringe or vacuum, or by spray using a concentration of surfactant that is known from people skilled in the art.
Visual observation of step (c) can be made several days, preferably 4 to 5 days, after step (b) The term “silencing” means down-regulating or antagonizing, at least partly, a targeted gene transcript.
For this purpose, they have sprayed a previously characterized phloem-specific IR-PTGS sensor (Dunoyer et al., 2005) with either (1) Salicylic acid (SA), a well-characterized phytohormone that plays a critical role in resistance against biotrophic pathogens, (2) 2,6-dichloroisonicotonic acid and benzo-(1,2,3)-thiadiazole-7-carbothioic acid S-methyl ester (BTH), a functional analog of SA that is regularly used by farmers to enhance disease resistance in crops, (3) Aliette, formulated fosetyl-Aluminium that can stimulate plant antimicrobial defense in cultivated plants but also protect them from fungal and oomycete infections through a potent and systemic fungicide activity, (4) Serenade, which is composed of formulated Bacillus subtilis (5) formulated Laminarine, a beta 1-3 glucan that mimics fungal cell wall and therefore promote natural antifungal defense responses in some cultivated plants; and have further monitored the effects of such treatments on the vein-centered chlorotic phenotype of this IR-PTGS reporter system. […] It is noteworthy that the presented molecular analyses allow us (i) to detect at which steps of the PTGS a given molecule is acting (small RNA biogenesis and/or RISC activity) (ii) to quantify the strength by which the candidate molecules is modulating RNA silencing in a given tissue that is relevant for disease management. […]

[5] = system: SUL transcript; assay: RT-qPCR of SUL transcript levels in SA-treated SUC-SUL leaves; settings: 2 mM SA + 0.01% Silwet L-77, 3 days, vs Mock
Experimental: B. RT-qPCR analysis depicting SUL and CIP4 transcript levels in SUC-SUL leaves treated with either Mock (0.01% Silwet L-77 only) or with 2 mM of SA (+0.01% Silwet L-77) for 3 days.
as §1

`O=C(O)c1ccccc1O` [Salicylic acid] was tested, and the “accumulation of artificial siRNAs” value [1] was “no significant effect”, the “chlorotic phenotype / PTGS activity, xylem parenchyma reporters” value [2] was “not in other silencing reporter tested” and the SUL protein levels [3] was “significant decrease”. The “chlorotic phenotype / PTGS activity, phloem-specific reporter” value [4] was “promotes PTGS activity”, the “chlorotic phenotype / PTGS activity, phloem-specific reporter” value ([4]; listed as SA) was “significant enhanced chlorotic phenotype” and the “vein-centered chlorotic phenotype (IR-PTGS activity)” value (“vein-centered chlorotic phenotype” below) [4] was “significant enhanced chlorotic phenotypes”. For the same molecule, the SUL transcript accumulation [5] was “mild reduction”.
For `O=C(O)c1cc(Cl)nc(Cl)c1` [2,6-dichloroisonicotonic acid], the “vein-centered chlorotic phenotype” value [4] was “significant enhanced chlorotic phenotypes”.
`CSC(=O)c1cccc2nnsc12` [BTH, benzo-(1,2,3)-thiadiazole-7-carbothioic acid S-methyl ester] was tested, and the “vein-centered chlorotic phenotype” value [4] was “significant enhanced chlorotic phenotypes”.
